According to patent US20260306500A1, “METHOD OF INHIBITING ADENOSINE TRIPHOSPHATE SECRETION, METHOD OF INHIBITING HEPATIC STELLATE CELL ACTIVATION, METHOD OF DEACTIVATING HEPATIC STELLATE CELL, METHOD OF TREATING HEPATIC FIBROSIS, METHOD OF TREATING NON-ALCOHOLIC STEATOHEPATITIS, AND METHOD OF TREATING PSORIASIS” (Kurume University, priority 2023, published 2026):

Tests used:
[1] = tested on: mouse liver; experiment: Thioacetamide-induced hepatic fibrosis in mice: histology, immunostaining and fibrosis score; format: in vivo; conditions: 200 mg/kg p.o. three times per week
Protocol: Wild-type mice, […] (manufactured by Charles River Japan), were housed on a 12-hour light/dark cycle and fed a standard solid diet (5.4% fat, CRF-1, manufactured by Oriental Yeast Co., Ltd.) ad libitum. Thioacetamide (TAA, manufactured by FUJIFILM Wako Pure Chemical Corporation) was dissolved in physiological saline at 0.9% w/v. Eight-week-old mice were randomly assigned to three groups and continuously treated for 9 weeks according to the following scheme. At Week 9, all mice were euthanized 1 hour after administration of physiological saline or IMG.
Normal control group (N=6): Physiological saline was intraperitoneally administered to mice three times per week. Eight hours after each administration, a vehicle was orally administered to the mice.
TAA group (N=6): TAA (50 mg/kg, intraperitoneal) was administered to mice. Eight hours thereafter, physiological saline was orally administered to the mice. This treatment was performed three times per week for a total of 9 weeks.
TAA+IMG group (N=6): During the first week, physiological saline was orally administered to mice. Thereafter, imeglimin (IMG) at 200 mg/kg was orally administered three times per week for 8 weeks. The administration of IMG was performed 8 hours after intraperitoneal administration of TAA (50 mg/kg).
For immunohistochemical analysis, liver samples were fixed in 4% paraformaldehyde, embedded in paraffin, and then sectioned. The sections were stained with HE or PSR. In addition, the paraffin-embedded sections were subjected to immunostaining using an α-SMA monoclonal antibody (1:500, catalog No. A5228, manufactured by Sigma-Aldrich) and an F4/80 monoclonal antibody (1:200, catalog No. MCA497GA, manufactured by AbD Serotec). The cell specimens were observed using a microscope (BZ-X700 series, manufactured by Keyence) or a confocal laser microscope (FV1000, manufactured by Olympus Corporation). The number of F4/80-positive cells was counted in four high-power fields per section. The α-SMA-positive area and the PSR-positive area were quantified using the image analysis software Fiji-ImageJ (1.54f).
A histological score was determined by a blinded investigator using the NAFLD histological scoring system of the Nonalcoholic Steatohepatitis Clinical Research Network. The total NAFLD activity score (NAS) was calculated from the total of the individual scores for steatosis ([…]), lobular inflammation (F4/80), and hepatocyte ballooning. The range of each parameter was 0 to 2 (ballooning) or 3 (the other two scores), where 0 indicates normal and 2 or 3 indicates severe. Staging of fibrosis was based on the NASH fibrosis stages, and a fibrosis stage ranging from 0 to 4 was determined according to Reference H (David E. Kleiner et al., 2005, Design and validation of a histological scoring system for nonalcoholic fatty liver disease, Hepatology, 41, 1313-1321).
All results are expressed as the mean±standard error of the mean (S.E.M.). Statistical analyses were performed using GraphPad Prism 7.0 (GraphPad Software). Significance upon comparison between two groups was evaluated by an unpaired two-tailed Student's t-test. […]. Statistical significance among three or more groups was determined by two-way analysis of variance (ANOVA) with Tukey's or Dunnett's post hoc test. Coloc2 was used to perform image analysis, automatic thresholding, and pixel intensity correlation for statistical processing. Statistical significance was assumed when the P value was <0.05.

[2] = tested on: keratinocytes; experiment: Imiquimod-induced ATP secretion in keratinocytes; format: cell-based, human; conditions: 18 hours, N=8 (FIG. 32)
Protocol: In the same manner as in Example 1, keratinocytes were cultured at 2.5×10^4 cells/well in a 24-well plate at 37° C. in 5% CO2 for 4 days. The medium was replaced with HBSS (manufactured by Gibco) supplemented with 1 μM or 10 μM imeglimin, and incubation was performed at 37° C. in 5% CO2 for 18 hours. Thereafter, imiquimod was added thereto at 1 μg/ml or 0.5 μg/ml, and incubation was performed for 15 minutes, followed by collection of 200 μl of the supernatant. The supernatant was immediately treated on a heat block at 95° C. for 10 minutes, and ATP in the supernatant was quantified using a ATP Assay Kit—Luminescence (manufactured by Dojindo) (N=8).

[3] = tested on: mouse auricle; experiment: Imiquimod-induced psoriasis model, comparison with an anti-TNFα antibody (Example 19); format: in vivo
Protocol: The dorsal hair of mice was shaved and depilated (Day 0). To each of the left auricle and the depilated back of each mouse, 62.5 mg of 5% imiquimod cream (Beselna Cream 5%) was applied once daily a total of seven times (Days 1 to 7) in accordance with Example 18, to induce imiquimod-induced psoriasis (IMQ group). In the IMQ+IMG group, mice received oral administration of imeglimin (40 mg/kg) once daily (Day 1 to 7) after the imiquimod application. […] Thickness of the auricle was measured, and the degrees of erythema, desquamation, and infiltration in the affected area were rated on Days 1, 3, 5, 7, and 8 according to the PASI scoring of the DermNET Dermatology Resource (none: 0, mild: 1, moderate: 2, severe: 3, and very severe: 4). The resulting values were used to calculate the PASI score.
Further, for an auricle excised on Day 8, immunohistochemical staining was performed in the same manner as in Example 18, and auricular sections were imaged using a fluorescence microscope (BZ-X710; manufactured by Keyence Corporation).

[4] = PEP; cited from earlier work

C[C@@H]1N=C(N)NC(N(C)C)=N1 [imeglimin]
destruction of the lobular structure, hepatocyte ballooning, and inflammatory cell infiltration ([1]; 8 weeks): reduced | fibrosis stage ([1]; 8 weeks): reducing the fibrosis stage | TAA-induced increase in F4/80-positive macrophages ([1]; 8 weeks (FIG. 27)): strongly suppressed | TAA-induced increase in α-SMA-positive reaction ([1]; 8 weeks (FIG. 27)): strongly suppressed | TAA-induced increase in fibrosis score ([1]; 8 weeks (FIG. 28)): suppressed | PSR staining-positive area ([1]; 8 weeks, TAA+IMG vs TAA group, N=6): significantly reduced | imiquimod-promoted ATP secretion ([2]; 1 μM imeglimin): strongly inhibited | imiquimod-promoted ATP secretion ([2]; 10 NM imeglimin (so in the source)): strongly inhibited | inhibitory effects on psoriatic symptoms by TMG1 immunohistochemical images ([3]; Day 8 (FIG. 42)): supported by the immunohistochemical images of TMG1 | erythema (excepted from the symptoms reduced) ([3]; imeglimin 40 mg/kg oral daily or infliximab 100 μg/mouse i.v. Days 1, 3, 5, N=5 (FIG. 38)): except erythema | typical psoriatic symptoms induced by imiquimod, except erythema (thickness, desquamation, infiltration, PASI score) ([3]; imeglimin 40 mg/kg oral daily or infliximab 100 μg/mouse i.v. Days 1, 3, 5, N=5 (FIGS. 37-41)): reduced | effect of imeglimin compared with infliximab ([3]; imeglimin 40 mg/kg oral vs infliximab 100 μg/mouse i.v.): almost equivalent, or imeglimin was more effective

C=C(OP(=O)(O)O)C(=O)O [PEP, phosphoenolpyruvic acid]
permeation of the cell membrane [4]: freely permeate the cell membrane
